Activity calls are given as the source filed them. The calls are words filed in the database; no cut-off is given here.
System: PC-12
Assay: Neuroprotective activity against MPP+-induced cell injury in […] cells assessed as cell survival rate at 20 uM (reference value: 68.60 +/- 1.06 %)
Assay type: functional
Conditions: Rattus norvegicus, read-out: Survival
In the case of C/C=C/C=C/C(=O)O[C@@H]1C[C@@H](C)[C@@]23C[C@@H](OC(=O)[C@@H]2O)[C@@]2(O)C(=O)OC[C@@]2(C)[C@@]13O, the viability at 20 µM was 68.5%.
Compound C/C=C/C=C/C(=O)O[C@]12C(=O)OC[C@@]1(C)[C@@]1(O)CC[C@@H](C)[C@]13C[C@H]2OC(=O)[C@@H]3O has a viability at 20 µM of 72.5%.

System: not listed separately
Assay: Cytotoxicity against […] cells assessed as inhibition of cell growth by CCK-8 assay
Assay type: toxicity, cell-based
Conditions: rat
Work on C/C=C/C=C/C(=O)O[C@@H]1C[C@@H](C)[C@@]23C[C@@H](OC(=O)[C@@H]2O)[C@@]2(O)C(=O)OC[C@@]2(C)[C@@]13O yielded an IC50 greater than 512 µg/mL.
C/C=C/C=C/C(=O)O[C@]12C(=O)OC[C@@]1(C)[C@@]1(O)CC[C@@H](C)[C@]13C[C@H]2OC(=O)[C@@H]3O showed an IC50 greater than 512 µg/mL.

System: PC-12
Assay: Neuroprotective activity in […] cells assessed as induction of NGF-mediated neurite outgrowth by measuring protrusion length extension at 10 uM by methylene blue staining based light microscopic analysis
Assay type: functional, cell-based
Conditions: Rattus norvegicus
In the case of C/C=C/C=C/C(=O)O[C@@H]1C[C@@H](C)[C@@]23C[C@@H](OC(=O)[C@@H]2O)[C@@]2(O)C(=O)OC[C@@]2(C)[C@@]13O, the Activity was “Active”.
In the case of C/C=C/C=C/C(=O)O[C@]12C(=O)OC[C@@]1(C)[C@@]1(O)CC[C@@H](C)[C@]13C[C@H]2OC(=O)[C@@H]3O, the Activity was “Active”.
With C[C@@H]1C[C@@H](OC(=O)CCc2ccc(F)cc2)[C@@]2(O)[C@@]13C[C@@H](OC(=O)[C@@H]3O)[C@@]1(O)C(=O)OC[C@@]21C the Activity was “Active”.

System: PC-12
Assay: Neuroprotective activity in […] cells assessed as induction of NGF-mediated neurite outgrowth by measuring differentiation rate of neurite-beating cells at 10 uM incubated for 72 hrs (reference value: 4.27 +/- 0.04 %)
Assay type: functional, Rattus norvegicus
Conditions: not given
Work on C[C@@H]1C[C@@H](OC(=O)CCC(=O)c2ccccc2)[C@@]2(O)[C@@]13C[C@@H](OC(=O)[C@@H]3O)[C@@]1(O)C(=O)OC[C@@]21C yielded an Activity of 6.42%.
C/C=C/C=C/C(=O)O[C@@H]1C[C@@H](C)[C@@]23C[C@@H](OC(=O)[C@@H]2O)[C@@]2(O)C(=O)OC[C@@]2(C)[C@@]13O gave an Activity of 11.83%.
Work on C[C@@H]1CC[C@@]2(O)[C@@]13C[C@@H](OC(=O)[C@@H]3O)[C@@]1(OC(=O)CCC(=O)c3ccccc3)C(=O)OC[C@@]21C yielded an Activity of 8.79%.
For C[C@@H]1C[C@@H](OC(=O)CCc2cccc(Br)c2)[C@@]2(O)[C@@]13C[C@@H](OC(=O)[C@@H]3O)[C@@]1(OC(=O)CCc3cccc(Br)c3)C(=O)OC[C@@]21C, the Activity was 5.1%.
For C[C@@H]1C[C@@H](OC(=O)CCc2ccc(Cl)cc2)[C@@]2(O)[C@@]13C[C@@H](OC(=O)[C@@H]3O)[C@@]1(O)C(=O)OC[C@@]21C, the Activity was 5.03%.
With C[C@@H]1CC[C@@]2(O)[C@@]13C[C@@H](OC(=O)[C@@H]3O)[C@@]1(O)C(=O)OC[C@@]21C the Activity was 8.76%.
Compound C[C@@H]1CC[C@@]2(O)[C@@]13C[C@@H](OC(=O)[C@@H]3O)[C@@]1(OC(=O)Cc3ccc(Br)cc3)C(=O)OC[C@@]21C has an Activity of 4.9%.
Compound COc1ccc(CC(=O)O[C@]23C(=O)OC[C@@]2(C)[C@@]2(O)CC[C@@H](C)[C@]24C[C@H]3OC(=O)[C@@H]4O)cc1 has an Activity of 5.27%.
With C[C@@H]1C[C@@H](OC(=O)CCc2ccc(Br)cc2)[C@@]2(O)[C@@]13C[C@@H](OC(=O)[C@@H]3O)[C@@]1(O)C(=O)OC[C@@]21C the Activity was 10.02%.
C[C@@H]1CC[C@@]2(O)[C@@]13C[C@@H](OC(=O)[C@@H]3O)[C@@]1(OC(=O)CCc3ccc(Br)cc3)C(=O)OC[C@@]21C showed an Activity of 6.85%.
With C[C@@H]1CC[C@@]2(O)[C@@]13C[C@@H](OC(=O)[C@@H]3O)[C@@]1(OC(=O)CCCBr)C(=O)OC[C@@]21C the Activity was 6.04%.
For C[C@@H]1CC[C@@]2(O)[C@@]13C[C@@H](OC(=O)[C@@H]3O)[C@@]1(OC(=O)CCc3cccc(F)c3)C(=O)OC[C@@]21C, the Activity was 5.7%.
C[C@@H]1C[C@@H](OC(=O)CCc2ccc(F)cc2)[C@@]2(O)[C@@]13C[C@@H](OC(=O)[C@@H]3O)[C@@]1(OC(=O)CCc3ccc(F)cc3)C(=O)OC[C@@]21C gave an Activity of 9.41%.
With C[C@@H]1C[C@@H](OC(=O)CCc2ccc(Br)cc2)[C@@]2(O)[C@@]13C[C@@H](OC(=O)[C@@H]3O)[C@@]1(OC(=O)CCc3ccc(Br)cc3)C(=O)OC[C@@]21C the Activity was 8.73%.
With C[C@@H]1CC[C@@]2(O)[C@@]13C[C@@H](OC(=O)[C@@H]3O)[C@@]1(OC(=O)CCc3ccc(Cl)cc3)C(=O)OC[C@@]21C the Activity was 6.05%.
In the case of C/C=C/C=C/C(=O)O[C@]12C(=O)OC[C@@]1(C)[C@@]1(O)CC[C@@H](C)[C@]13C[C@H]2OC(=O)[C@@H]3O, the Activity was 11.02%.
C[C@@H]1C[C@@H](OC(=O)CCc2ccccc2)[C@@]2(O)[C@@]13C[C@@H](OC(=O)[C@@H]3O)[C@@]1(O)C(=O)OC[C@@]21C showed an Activity of 9.67%.
Work on C[C@@H]1CC[C@@]2(O)[C@@]13C[C@@H](OC(=O)[C@@H]3O)[C@@]1(OC(=O)/C=C/c3ccccc3)C(=O)OC[C@@]21C yielded an Activity of 5.38%.
For C/C=C/C=C/C(=O)O[C@@H]1C[C@@H](C)[C@@]23C[C@@H](OC(=O)[C@@H]2O)[C@@]2(OC(=O)/C=C/C=C/C)C(=O)OC[C@@]2(C)[C@@]13O, the Activity was 5.13%.
In the case of C[C@@H]1CC[C@@]2(O)[C@@]13C[C@@H](OC(=O)[C@@H]3O)[C@@]1(OC(=O)CCc3cccc(Br)c3)C(=O)OC[C@@]21C, the Activity was 5.04%.
With C[C@@H]1CC[C@@]2(O)[C@@]13C[C@@H](OC(=O)[C@@H]3O)[C@@]1(OC(=O)Cc3cccc(Cl)c3)C(=O)OC[C@@]21C the Activity was 5.53%.
C[C@@H]1C[C@@H](OC(=O)CCc2cccc(Br)c2)[C@@]2(O)[C@@]13C[C@@H](OC(=O)[C@@H]3O)[C@@]1(O)C(=O)OC[C@@]21C gave an Activity of 5.56%.
In the case of COc1cc(CC(=O)O[C@]23C(=O)OC[C@@]2(C)[C@@]2(O)CC[C@@H](C)[C@]24C[C@H]3OC(=O)[C@@H]4O)cc(OC)c1OC, the Activity was 6.06%.
In the case of C[C@@H]1C[C@@H](OC(=O)CCc2cccc(Cl)c2)[C@@]2(O)[C@@]13C[C@@H](OC(=O)[C@@H]3O)[C@@]1(OC(=O)CCc3cccc(Cl)c3)C(=O)OC[C@@]21C, the Activity was 4.54%.
C[C@@H]1CC[C@@]2(O)[C@@]13C[C@@H](OC(=O)[C@@H]3O)[C@@]1(OC(=O)CCc3ccccc3)C(=O)OC[C@@]21C showed an Activity of 10.04%.
Work on C[C@@H]1CC[C@@]2(O)[C@@]13C[C@@H](OC(=O)[C@@H]3O)[C@@]1(OC(=O)Cc3cccc(F)c3)C(=O)OC[C@@]21C yielded an Activity of 5.9%.
For C[C@@H]1CC[C@@]2(O)[C@@]13C[C@@H](OC(=O)[C@@H]3O)[C@@]1(OC(=O)CCCCBr)C(=O)OC[C@@]21C, the Activity was 5.28%.
For C[C@@H]1CC[C@@]2(O)[C@@]13C[C@@H](OC(=O)[C@@H]3O)[C@@]1(OC(=O)Cc3cccc(Br)c3)C(=O)OC[C@@]21C, the Activity was 6.91%.
Work on C[C@@H]1C[C@@H](O)[C@@]2(O)[C@@]13C[C@@H](OC(=O)[C@@H]3O)[C@@]1(O)C(=O)OC[C@@]21C yielded an Activity of 6.25%.
With C[C@@H]1C[C@@H](OC(=O)CCc2cccc(Cl)c2)[C@@]2(O)[C@@]13C[C@@H](OC(=O)[C@@H]3O)[C@@]1(O)C(=O)OC[C@@]21C the Activity was 4.69%.
Compound C[C@@H]1CC[C@@]2(O)[C@@]13C[C@@H](OC(=O)[C@@H]3O)[C@@]1(OC(=O)Cc3ccc(F)cc3)C(=O)OC[C@@]21C has an Activity of 5.85%.
Work on C[C@@H]1C[C@@H](OC(=O)CCC(=O)c2ccccc2)[C@@]2(O)[C@@]13C[C@@H](OC(=O)[C@@H]3O)[C@@]1(OC(=O)CCC(=O)c3ccccc3)C(=O)OC[C@@]21C yielded an Activity of 5.25%.
C[C@@H]1CC[C@@]2(O)[C@@]13C[C@@H](OC(=O)[C@@H]3O)[C@@]1(OC(=O)CCc3cccc(Cl)c3)C(=O)OC[C@@]21C showed an Activity of 4.88%.
Work on C[C@@H]1CC[C@@]2(O)[C@@]13C[C@@H](OC(=O)[C@@H]3O)[C@@]1(OC(=O)Cc3ccc4ccccc4c3)C(=O)OC[C@@]21C yielded an Activity of 5.55%.
C[C@@H]1C[C@@H](OC(=O)CCc2ccc(F)cc2)[C@@]2(O)[C@@]13C[C@@H](OC(=O)[C@@H]3O)[C@@]1(O)C(=O)OC[C@@]21C gave an Activity of 10.96%.
Work on C[C@@H]1C[C@@H](OC(=O)CCc2ccc(Cl)cc2)[C@@]2(O)[C@@]13C[C@@H](OC(=O)[C@@H]3O)[C@@]1(OC(=O)CCc3ccc(Cl)cc3)C(=O)OC[C@@]21C yielded an Activity of 5.21%.
Work on C[C@@H]1C[C@@H](OC(=O)CCc2cccc(F)c2)[C@@]2(O)[C@@]13C[C@@H](OC(=O)[C@@H]3O)[C@@]1(OC(=O)CCc3cccc(F)c3)C(=O)OC[C@@]21C yielded an Activity of 4.93%.
With C[C@@H]1C[C@@H](OC(=O)CCc2cccc(F)c2)[C@@]2(O)[C@@]13C[C@@H](OC(=O)[C@@H]3O)[C@@]1(O)C(=O)OC[C@@]21C the Activity was 5.78%.
Compound C[C@@H]1C[C@@H](OC(=O)CCc2ccccc2)[C@@]2(O)[C@@]13C[C@@H](OC(=O)[C@@H]3O)[C@@]1(OC(=O)CCc3ccccc3)C(=O)OC[C@@]21C has an Activity of 5.47%.
With C[C@@H]1CC[C@@]2(O)[C@@]13C[C@@H](OC(=O)[C@@H]3O)[C@@]1(OC(=O)CCc3ccc(F)cc3)C(=O)OC[C@@]21C the Activity was 8.99%.
Work on C[C@@H]1CC[C@@]2(O)[C@@]13C[C@@H](OC(=O)[C@@H]3O)[C@@]1(OC(=O)Cc3ccc(Cl)cc3)C(=O)OC[C@@]21C yielded an Activity of 5.52%.
